The source of these data is article PMC4108065, “Inflammation and pancreatic cancer: molecular and functional interactions between S100A8, S100A9, NT-S100A8 and TGFβ1” (Cell Communication and Signaling : CCS, 2014).

Test [1] concerns BxPC3-SMAD4+ IκBα and Akt phosphorylation. As to the kind of experiment: Signaling western blot in BxPC3-SMAD4+ cells. The test is classed as cell-based, human. Conditions: BxPC3-SMAD4+ vs BxPC3, 10 min, 10 nM S100A8. As for the experimental part:
The pancreatic cancer cell lines used were: Panc1 and Suit2, donated by Prof Aldo Scarpa (University of Verona, Italy); BxPC3, from Dr Andrea Galli (University of Florence, Italy); MiaPaCa2, Capan1 and the human embryonic kidney Hek293 cell lines, supplied by the American Type Culture Collection (Manassas, VA, USA). BxPC3, Capan1 and Panc1 were cultured in RPMI (Gibco/BRL, Gaithhersburg, MD, USA) supplemented with 10% (BxPC3 and Panc1) and 20% (Capan1) fetal calf serum (FCS) (Gibco/BRL), 1% L-glutamine (Gibco/BRL) and 0.1% gentamycin (Gibco/BRL). MiaPaCa2 and Hek293 were cultured in DMEM (Gibco/BRL) supplemented with 10% FCS, 2% L-glutamine and 0.1% Gentamycin. BxPC3 cells were transfected with the expression vector pBK-cytomegalovirus (CMV)-SMAD4/DPC4, as previously described. One SMAD4/DPC4-expressing clone (BxPC3-SMAD4+) was used for the experiments. Smad4 silencing of MiaPaCa2 cells was performed as previously described.
Five million cells were seeded in Petri dishes (ø 10 cm) and cultured for 24 hours in their respective complete media prior to starting the experiments. […] Lysates were centrifuged for 10 min at 14,000 rpm at 4°C and, in the supernatants, total proteins were measured using the Bio-Rad protein assay (Bio-Rad Laboratories, Milano, Italy). […]
(In general: Immunoblotting shows a protein as a band on a membrane.)

The subject of another test is BxPC3 EMT gene mRNA. As to the kind of experiment: Real time PCR for EMT markers, BxPC3. Type of test: cell-based, human. The conditions noted are these: BxPC3, 72 hours. As for the experimental part: BxPC3 and MiaPaCa2 cells (300 × 10^3) were seeded in six well dishes for 24 hours in their complete media. Cells remained non-stimulated (negative control) or were stimulated with 10 nM S100A8, 10 nM S100A9 and 50 nM NT-S100A8, alone or combined with 0.02 ng/ml TGFβ1, for 72 hours. Following stimulation, the cells were collected with 0.25% trypsin (1 mM EDTA) and centrifuged for 10 min at 4,000 rpm. Total RNA was extracted from cells using the High Pure RNA isolation kit (Roche, Monza, Italy), and reverse transcription was performed using 200 ng of total RNA, M-MLV Transcriptase and 250 μM random primers (Invitrogen S.R.L.). Quantitative Real-Time PCR analysis for CDH1 (E-cadherin), CDH2 (N-cadherin), SNAI1 (Snail), SNAI2 (Slug), TWIST1 (Twist), ZEB1, ZEB2, and B2M (β2-micro-globulin) were performed with the LightCycler 480 Real-Time System (Roche Diagnostics, Mannheim, Germany). The primer sequences (shown in Additional file 10: Table S2) and the respective probes were designed using the Universal ProbeLibrary (Roche) and ProbeFinder software (http://www.roche-applied-science.com/). Experimental procedures followed the standard protocol using the LightCycler 480 Probes Master (Roche). β2-microglobulin (B2M) was included as a housekeeping gene control. […]
A general note: Quantitative PCR measures a nucleic acid by following its amplification.

Consider “S100A8: inflammatory calcium binding protein S100A8 (ProSpec-Tany TechnoGene)”, for which, in test [1], the “IκBα phosphorylation in Smad4 expressing BxPC3” value is “reduced IκBα phosphorylation”. Besides, the Twist expression entry with BxPC3 EMT gene mRNA (10 nM, levels comparable with those of TGFβ1, Kruskal-Wallis p = 0.018) is “significantly increased”. On to “TGFβ1: transforming growth factor beta 1 (ProSpec-Tany TechnoGene)”, for which the “Twist median fold increase” value with BxPC3 EMT gene mRNA (0.02 ng/ml TGFβ1, RT-PCR, with respect to control cells) worked out at 6.32 fold.
